The target in assay [1] is Adenosine receptor A2a (Homo sapiens, UniProt P29274).
Assay [2] concerns the target T1, Adenosine receptor A1 (Rattus norvegicus, UniProt P25099).
T1 sequence (P25099 whole entry): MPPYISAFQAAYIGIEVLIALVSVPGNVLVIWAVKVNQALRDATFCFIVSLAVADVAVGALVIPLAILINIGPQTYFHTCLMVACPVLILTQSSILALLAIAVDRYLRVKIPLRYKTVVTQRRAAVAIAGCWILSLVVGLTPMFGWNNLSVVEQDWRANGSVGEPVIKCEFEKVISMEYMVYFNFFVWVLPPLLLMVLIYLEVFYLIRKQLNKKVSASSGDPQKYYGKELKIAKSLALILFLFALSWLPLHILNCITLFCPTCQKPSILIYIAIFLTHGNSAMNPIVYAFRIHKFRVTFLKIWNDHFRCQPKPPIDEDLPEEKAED

Chain of Adenosine receptor A2a (P29274 whole entry): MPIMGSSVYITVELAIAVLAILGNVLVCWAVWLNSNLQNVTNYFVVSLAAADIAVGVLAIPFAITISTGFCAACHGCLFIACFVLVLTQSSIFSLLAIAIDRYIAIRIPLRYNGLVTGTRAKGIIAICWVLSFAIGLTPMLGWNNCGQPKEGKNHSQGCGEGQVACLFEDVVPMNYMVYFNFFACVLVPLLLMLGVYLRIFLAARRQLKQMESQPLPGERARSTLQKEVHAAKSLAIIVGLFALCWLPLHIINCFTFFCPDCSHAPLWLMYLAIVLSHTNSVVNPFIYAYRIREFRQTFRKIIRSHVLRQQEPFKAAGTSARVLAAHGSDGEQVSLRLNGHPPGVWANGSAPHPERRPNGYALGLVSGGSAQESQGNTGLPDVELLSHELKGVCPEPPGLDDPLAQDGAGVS

For orientation: Ki means the equilibrium dissociation constant of an inhibitor or competing ligand from its target. Consider `OC[C@H]1CC[C@H](n2cnc3c(NC4CCCCC4)ncnc32)O1` [alpha-ddCHA], for which the Ki in assay [1] was above 10 µM. For `OC[C@@H]1CC[C@H](n2cnc3c(NC4CCCCC4)ncnc32)O1` [ddCHA], the values for the Ki in assay [1] and in assay [2] were above 10 µM and 4.8 µM, respectively.

The record behind these values is BindingDB's records for doi:10.1016/0014-2999(88)90158-6 (Pharmakologisches Institut, 1988).
